Results published in patent US8901118B2, “Compounds and methods for kinase modulation, and indications therefor” (Plexxikon Inc., priority 2010, dated 2014).

How the values were obtained:
Fms kinase = Fms kinase (Homo sapiens, UniProt P07333); experiment: Fms kinase biochemical activity assay (AlphaScreen, biotin-(E4Y)10 phosphorylation); conditions: 100 μM ATP; read-out: Biochemical Inhibition IC50 Fms
Description: In one assay the biochemical activity IC50 values are determined with respect to inhibition of Fms kinase activity, where inhibition of phosphorylation of a peptide substrate is measured as a function of compound concentration. Compounds to be tested, dissolved in DMSO (1 μL), are added to a white 384-well plate (Costar #3705). Working stocks of Fms kinase (Invitrogen #PV3249), biotin-(E4Y)10 substrate (Upstate Biotech, Cat#12-440), and ATP (Sigma, Cat#A-3377) are prepared in 25 mM Hepes pH 7.5, 0.5 mM MgCl2, 2 mM MnCl2, 2 mM DTT, 0.01% BSA, and 0.01% Tween-20. All components are added to the 384-well plate for a final concentration of 1 ng/well Fms, 30 nM biotin-(E4Y)10 (Upstate Biotechnology) and 100 μM ATP in a volume of 20 μL. Each sample is at 5% DMSO. The plate is then incubated for 20 minutes at 30° C. Just before use, working stocks of donor and acceptor beads from the AlphaScreen PY20 Detection Kit (PerkinElmer, Cat#676601M) are prepared in 25 mM Hepes pH 7.5, pH 7.4, 100 mM EDTA, 0.01% BSA. To stop the reaction, the plate is uncovered in the dark and 5 μL of Donor Beads solution (Streptavidin beads) is added to each well. The plate is incubated at room temperature for 20 minutes. Five microliters of Acceptor Beads solution (PY20 coated beads) are then added to each well. The final concentration of each bead is 10 μg/mL. The plates are incubated at room temperature for 60 minutes. Fluorescence signal is recorded on the Envision reader. Phosphorylated substrate results in binding of the PY20 antibody and association of the donor and acceptor beads such that signal correlates with kinase activity. The signal vs. compound concentration is used to determine the IC50.

CYP1A2 = biological target: T1, CYP1A2 (Homo sapiens, UniProt P05177); experiment: CYP1A2 inhibition (fluorescent substrate CEC); type: in vitro ADME; conditions: read-out: Cyp IC50 1A2
T1 sequence (P05177 1-516): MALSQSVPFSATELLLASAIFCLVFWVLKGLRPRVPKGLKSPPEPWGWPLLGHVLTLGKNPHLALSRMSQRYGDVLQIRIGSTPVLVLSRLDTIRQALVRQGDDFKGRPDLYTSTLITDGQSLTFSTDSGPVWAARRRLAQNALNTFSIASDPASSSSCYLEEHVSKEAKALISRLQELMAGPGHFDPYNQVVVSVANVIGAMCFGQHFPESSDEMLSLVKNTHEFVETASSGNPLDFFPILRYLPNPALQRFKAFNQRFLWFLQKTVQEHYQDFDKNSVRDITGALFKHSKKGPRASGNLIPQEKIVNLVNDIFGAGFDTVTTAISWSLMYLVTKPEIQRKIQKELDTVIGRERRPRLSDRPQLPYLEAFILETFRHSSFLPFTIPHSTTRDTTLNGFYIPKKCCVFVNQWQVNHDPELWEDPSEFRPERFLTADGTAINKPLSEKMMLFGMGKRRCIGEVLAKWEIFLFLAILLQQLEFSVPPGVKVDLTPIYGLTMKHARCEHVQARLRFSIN
Description: (§1) CYP (Cytochrome P450) enzymes are the major drug metabolizing enzymes present in the liver. The inhibition of CYP enzyme activity (IC50) for each of CYP1A2, CYP2C19, CYP2C9, CYP2D6, CYP3A4(BFC) and CYP3A4(BQ) is determined for compounds, where inhibition of metabolism of a known substrate leads to a decrease in the fluorescence of the metabolized product. The fluorescence of the product is monitored as a function of compound concentration. Compounds are dissolved in DMSO to a concentration of 100 mM. These are diluted 1 μL into 82 μL of acetonitrile. An 11 μL aliquot of this solution is then added to 204 μL of cofactor mix (1.3% NADPH Regeneration system Solution A, 1.04% NADPH Regeneration system Solution B from BD Biosciences, 5% acetonitrile and 0.05% DMSO). These are then serially diluted 1:1 (160 μL to 160 μL co-factor mix) for a total of 10 points. A 10 μL aliquot of this final mixture is dispensed into 384 well assay plates and incubated for 10 minutes at 37° C. […] Assay plates are incubated at 37° C. (CYP1A2-15 min; CYP2C9-45 min; CYP2C19, 2D6 and 3A4-30 min) and read in a Tecan Safire 2 plate reader (CYP1A2, 2C19 and 3A4 409 ex/460 em; CYP2C9 and 2D6 409 ex/530 em). The signal versus compound concentration is used to determine the IC50. The enzymes and substrates for this assay are obtained from BD Biosciences.

CYP2D6 = CYP2D6 (Homo sapiens, UniProt P10635); experiment: CYP2D6 inhibition (fluorescent substrate AMMC); type: in vitro ADME; conditions: read-out: Cyp IC50 2D6
Sequence of CYP2D6 (P10635 whole entry): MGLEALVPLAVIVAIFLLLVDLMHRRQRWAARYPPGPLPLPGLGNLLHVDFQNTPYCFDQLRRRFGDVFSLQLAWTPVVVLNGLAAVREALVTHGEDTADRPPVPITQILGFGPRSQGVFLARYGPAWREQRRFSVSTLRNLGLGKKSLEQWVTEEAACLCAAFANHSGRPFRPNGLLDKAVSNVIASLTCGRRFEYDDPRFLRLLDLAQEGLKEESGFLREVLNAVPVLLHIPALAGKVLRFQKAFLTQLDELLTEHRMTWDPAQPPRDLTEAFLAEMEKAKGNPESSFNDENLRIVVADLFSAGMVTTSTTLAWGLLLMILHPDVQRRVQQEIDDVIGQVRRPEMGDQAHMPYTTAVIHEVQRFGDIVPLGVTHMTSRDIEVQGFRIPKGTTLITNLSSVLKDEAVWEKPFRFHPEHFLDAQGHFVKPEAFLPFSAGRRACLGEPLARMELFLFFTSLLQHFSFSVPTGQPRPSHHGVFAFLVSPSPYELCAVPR
Description: as §1

[1] = Relative solubility by turbidity in aqueous buffers (pH 1.5, 4.5, 6.8, 7.4); type: physicochemical; conditions: for turbidity threshold (L, M, H) 1.4: pH 1.5 (SGF); for turbidity threshold (L, M, H) 4.5: pH 4.5 (SIF); for turbidity threshold (L, M, H) 6.8: pH 6.8 (SIF); for turbidity threshold (L, M, H) 7.4: pH 7.4 (HEPES)
Description: As an indication of relative solubility, the turbidity of compounds in aqueous solutions is assessed. To assess possible compound properties in different physiological compartments, such as stomach, intestine, and blood, a series of aqueous buffers with varying pH is used. Thus each compound is diluted into four different physiologically relevant buffers and solution turbidity is measured by spectrophotometry.
Compounds are dissolved at a concentration of 25 mM in dimethyl sulfoxide, then serially diluted 1:1 into a 96 well plate, diluting 10 times in pure dimethyl sulfoxide, with the final well of each row a dimethyl sulfoxide blank. In an assay plate, 99 μL of appropriate buffer is added to each well, and 1 μL of each sample dilution is added to the buffer, achieving a range of final total concentrations in aqueous solutions having different pH. The buffers used are Simulated Gastric Fluid (SGF-pH 1.5) 0.5M NaCl, pH 1.5; Simulated Intestinal fluid (SIF-pH 4.5 and pH 6.8) 0.05M NaH2PO4, pH 4.5 and 6.8; and Hepes Buffer (HEPES-pH 7.4) 10 mM HEPES, 150 mM NaCl, pH 7.4. Control compounds pyrene, estriol and propranolol HCl are also assessed. Plates are spun and then mixed for 1 minute, and the absorbance is read using a Tecan Safire II to read wavelengths in the visible range (490, 535, and 650 nm) at four locations per well, reflecting the degree of turbidity present. The average optical density for each wavelength in each well is graphed vs. compound concentration, and the concentration at which the curve crosses a threshold O.D. of 0.01 for each wavelength is reported as the endpoint turbidity assay result. The average of the three wavelengths is used to compare turbidity of compounds.

CYP3A4(BQ) = CYP3A4(BQ) (Homo sapiens, UniProt P08684); experiment: CYP3A4(BQ) inhibition; type: in vitro ADME; conditions: CYP3A4, substrate BQ; read-out: Cyp IC50 3A4(BQ)
Sequence of CYP3A4(BQ) (P08684 whole entry): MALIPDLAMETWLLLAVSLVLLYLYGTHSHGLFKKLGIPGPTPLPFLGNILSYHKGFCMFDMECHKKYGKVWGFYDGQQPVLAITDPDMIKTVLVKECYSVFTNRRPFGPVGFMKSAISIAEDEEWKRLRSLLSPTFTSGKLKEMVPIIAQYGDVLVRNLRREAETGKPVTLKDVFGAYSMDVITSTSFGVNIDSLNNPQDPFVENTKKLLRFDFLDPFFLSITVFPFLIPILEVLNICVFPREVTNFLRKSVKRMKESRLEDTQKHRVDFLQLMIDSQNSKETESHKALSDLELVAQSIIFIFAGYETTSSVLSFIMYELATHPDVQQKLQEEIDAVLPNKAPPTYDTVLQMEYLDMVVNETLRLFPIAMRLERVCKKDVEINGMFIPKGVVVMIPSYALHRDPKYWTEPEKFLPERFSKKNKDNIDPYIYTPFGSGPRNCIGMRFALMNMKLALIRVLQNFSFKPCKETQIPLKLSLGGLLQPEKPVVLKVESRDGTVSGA
Description: as §1

Sequence of Fms kinase (P07333 20-972): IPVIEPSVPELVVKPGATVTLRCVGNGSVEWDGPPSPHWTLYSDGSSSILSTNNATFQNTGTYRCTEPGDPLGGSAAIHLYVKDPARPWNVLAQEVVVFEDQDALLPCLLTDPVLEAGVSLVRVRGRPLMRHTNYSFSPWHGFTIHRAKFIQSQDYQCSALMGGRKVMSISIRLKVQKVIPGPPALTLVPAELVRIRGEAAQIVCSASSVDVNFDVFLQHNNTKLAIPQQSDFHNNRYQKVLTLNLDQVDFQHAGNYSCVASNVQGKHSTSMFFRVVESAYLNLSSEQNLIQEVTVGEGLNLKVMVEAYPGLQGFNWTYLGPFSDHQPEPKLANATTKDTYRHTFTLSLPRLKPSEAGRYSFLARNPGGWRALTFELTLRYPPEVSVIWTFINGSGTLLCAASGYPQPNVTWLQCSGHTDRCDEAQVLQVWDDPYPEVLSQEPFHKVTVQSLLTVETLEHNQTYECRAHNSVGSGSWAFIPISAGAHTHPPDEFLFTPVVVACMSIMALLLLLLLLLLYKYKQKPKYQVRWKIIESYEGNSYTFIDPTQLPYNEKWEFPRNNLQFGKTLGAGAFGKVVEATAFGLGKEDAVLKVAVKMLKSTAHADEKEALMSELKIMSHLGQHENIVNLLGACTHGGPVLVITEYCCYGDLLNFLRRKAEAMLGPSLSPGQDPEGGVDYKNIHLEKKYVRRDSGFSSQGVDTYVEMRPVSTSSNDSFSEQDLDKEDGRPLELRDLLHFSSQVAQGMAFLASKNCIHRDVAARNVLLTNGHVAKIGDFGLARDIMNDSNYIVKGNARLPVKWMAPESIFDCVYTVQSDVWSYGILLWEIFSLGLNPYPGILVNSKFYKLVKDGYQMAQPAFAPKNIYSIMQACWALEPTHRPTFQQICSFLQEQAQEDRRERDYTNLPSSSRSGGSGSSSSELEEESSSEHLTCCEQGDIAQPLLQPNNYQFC

Row | Structure (SMILES) | IC50 (Fms kinase) [nM] | IC50 (CYP1A2) [µM] | IC50 (CYP2D6) [µM] | IC50 (CYP3A4(BQ)) [µM] | turbidity threshold (L, M, H) 1.4 [1] | turbidity threshold (L, M, H) 4.5 [1] | turbidity threshold (L, M, H) 6.8 [1] | turbidity threshold (L, M, H) 7.4 [1]
1 | CC1CCC(Nc2ncc(Cc3c[nH]c4ncc(Cl)cc34)cn2)CC1 (stereo not drawn) [Compound P-3009, [5-(5-Chloro-1H-pyrrolo[2,3-b]pyridin-3-ylmethyl)-pyrimidin-2-yl]-(4-methyl-cyclohexyl)-amine] | < 100 | > 10 | > 10 | – | – | – | – | –
2 | COc1ccc(Nc2ccc(C(=O)c3c[nH]c4ncnc(N5CCCCC5)c34)c(F)n2)cn1 [Compound P-4069, [2-fluoro-6-[(6-methoxy-3-pyridyl)amino]-3-pyridyl]-[4-(1-piperidyl)-7H-pyrrolo[2,3-d]pyrimidin-5-yl]methanone] | < 1000 | > 10 | > 10 | > 10 | – | – | – | –
3 | CCc1ccc(Nc2ccc(C(=O)c3c[nH]c4ncnc(Nc5ccc(C)nc5)c34)c(F)n2)cn1 [Compound P-4086, [6-[(6-ethyl-3-pyridyl)amino]-2-fluoro-3-pyridyl]-[4-[(6-methyl-3-pyridyl)amino]-7H-pyrrolo[2,3-d]pyrimidin-5-yl]methanone] | < 1000 | – | – | – | – | – | – | –
4 | O=C(c1ccc(Nc2ccc(C3CC3)nc2)nc1F)c1c[nH]c2ncnc(NCC(F)(F)F)c12 [Compound P-4090, [6-[(6-cyclopropyl-3-pyridyl)amino]-2-fluoro-3-pyridyl]-[4-(2,2,2-trifluoroethylamino)-7H-pyrrolo[2,3-d]pyrimidin-5-yl]methanone] | < 100 | > 10 | > 10 | > 10 | – | – | – | –
5 | COc1ccc(Nc2ccc(C(=O)c3c[nH]c4ncnc(NC5CC5)c34)c(F)n2)cn1 [Compound P-4126, [4-(cyclopropylamino)-7H-pyrrolo[2,3-d]pyrimidin-5-yl]-[2-fluoro-6-[(6-methoxy-3-pyridyl)amino]-3-pyridyl]methanone] | < 10 | < 5 | > 10 | 5 to 10 | – | – | – | –

Now from value to compound, other results behind:

Row | IC50 (Fms kinase) [nM] | IC50 (CYP1A2) [µM] | IC50 (CYP2D6) [µM] | IC50 (CYP3A4(BQ)) [µM] | Structure (SMILES) | turbidity threshold (L, M, H) 1.4 [1] | turbidity threshold (L, M, H) 4.5 [1] | turbidity threshold (L, M, H) 6.8 [1] | turbidity threshold (L, M, H) 7.4 [1]
6 | < 10 | > 10 | > 10 | > 10 | Cc1cnc2[nH]cc(Cc3cnc(Nc4ccc(F)cc4)nc3)c2c1 [Compound P-3010, (4-Fluoro-phenyl)-[5-(5-methyl-1H-pyrrolo[2,3-b]pyridin-3-ylmethyl)-pyrimidin-2-yl]-amine] | H (high solubility if the threshold concentration is >250 μm) | L (low solubility if the threshold concentration is <31.3 μM) | L (low solubility if the threshold concentration is <31.3 μM) | M (moderate solubility if the threshold concentration is 31.3 μM to 250 μM)
7 | < 10 | > 10 | > 10 | > 10 | Clc1ccc(Nc2ncc(Cc3c[nH]c4ncc(Cl)cc34)cn2)cc1 [Compound P-3011, (4-Chloro-phenyl)-[5-(5-chloro-1H-pyrrolo[2,3-b]pyridin-3-ylmethyl)-pyrimidin-2-yl]-amine] | – | – | – | –
8 | < 10 | > 10 | > 10 | > 10 | Fc1ccc(Nc2ncc(Cc3c[nH]c4ncc(Cl)cc34)cn2)cc1 [Compound P-3012, [5-(5-Chloro-1H-pyrrolo[2,3-b]pyridin-3-ylmethyl)-pyrimidin-2-yl]-(4-fluoro-phenyl)-amine] | M (moderate solubility if the threshold concentration is 31.3 μM to 250 μM) | M (moderate solubility if the threshold concentration is 31.3 μM to 250 μM) | M (moderate solubility if the threshold concentration is 31.3 μM to 250 μM) | M (moderate solubility if the threshold concentration is 31.3 μM to 250 μM)
9 | < 10 | – | – | – | Fc1ccccc1Nc1ncc(Cc2c[nH]c3ncc(Cl)cc23)cn1 [Compound P-3014, [5-(5-Chloro-1H-pyrrolo[2,3-b]pyridin-3-ylmethyl)-pyrimidin-2-yl]-(2-fluoro-phenyl)-amine] | H (high solubility if the threshold concentration is >250 μm) | M (moderate solubility if the threshold concentration is 31.3 μM to 250 μM) | M (moderate solubility if the threshold concentration is 31.3 μM to 250 μM) | M (moderate solubility if the threshold concentration is 31.3 μM to 250 μM)
10 | < 10 | – | – | – | Clc1cnc2[nH]cc(Cc3cnc(Nc4ccccc4Cl)nc3)c2c1 [Compound P-3015, (2-Chloro-phenyl)-[5-(5-chloro-1H-pyrrolo[2,3-b]pyridin-3-ylmethyl)-pyrimidin-2-yl]-amine] | – | – | – | –
11 | < 10 | > 10 | > 10 | > 10 | CCc1ccc(Nc2ccc(C(=O)c3c[nH]c4ncnc(NCC(C)(C)O)c34)c(F)n2)cn1 [Compound P-4064, [6-[(6-ethyl-3-pyridyl)amino]-2-fluoro-3-pyridyl]-[4-[(2-hydroxy-2-methyl-propyl)amino]-7H-pyrrolo[2,3-d]pyrimidin-5-yl]methanone] | – | – | – | –
12 | < 10 | – | – | – | CNc1ncnc2[nH]cc(C(=O)c3ccc(Nc4ccc(OC)nc4)nc3OC)c12 [Compound P-4085, [2-methoxy-6-[(6-methoxy-3-pyridyl)amino]-3-pyridyl]-[4-(methylamino)-7H-pyrrolo[2,3-d]pyrimidin-5-yl]methanone] | – | – | – | –
13 | < 10 | > 10 | > 10 | > 10 | Cc1ccc(Nc2ccc(C(=O)c3c[nH]c4ncnc(NCC5CC5)c34)c(F)n2)cn1 [Compound P-4113, [4-(cyclopropylmethylamino)-7H-pyrrolo[2,3-d]pyrimidin-5-yl]-[2-fluoro-6-[(6-methyl-3-pyridyl)amino]-3-pyridyl]methanone] | – | – | – | –
